Usually IC50 stands for the concentration needed to halve the response being measured. By CC50 is commonly meant the concentration that lowers cell viability or growth by half.

Each structure is given as a SMILES string. A value given as a limit tells only on which side of the number the result lay.

We go through twelve compounds from publication PMC10821229, “Synthesis and Antiviral Activity of Novel β-D-N4-Hydroxycytidine Ester Prodrugs as Potential Compounds for the Treatment of SARS-CoV-2 and Other Human Coronaviruses” (Pharmaceuticals, 2023).

One data set has as its system SARS-CoV-2 BQ.1.1.45. The data set is described as follows: Inhibition of virus-induced cytopathic effect (MTT), SARS-CoV-2 BQ.1.1.45. The class given is cell-based. The note with it: Severe acute respiratory syndrome coronavirus 2.
A further data set concerns SARS-CoV-2 EG.5.1.1. The data set is described as follows: Inhibition of virus-induced cytopathic effect (MTT), SARS-CoV-2 EG.5.1.1. It is filed as cell-based. The following applies: Severe acute respiratory syndrome coronavirus 2.
The test system of the next data set is HCoV-229E. The data set is described as follows: Inhibition of virus-induced cytopathic effect (MTT), HCoV-229E. It is filed as cell-based. The following applies: Human coronavirus 229E, CPE inhibition, 100 TCID50, 72–96 h.
The nature of data set [1]: Cytotoxicity (CC50) in Vero E6 and huh-7 cells. The note with it: African green monkey (Vero E6) and human (huh-7), Vero E6 cells and huh-7 cells. It is filed as cell-based.
The next data set concerns SARS-CoV-2 XBB.1.16. The data set can be described thus: Inhibition of virus-induced cytopathic effect (MTT), SARS-CoV-2 XBB.1.16. It is filed as cell-based. The note with it: Severe acute respiratory syndrome coronavirus 2. For orientation: Protection from cytopathic effect is a common read-out in antiviral testing.
Another data set has as its system HIV. The following applies: compared with emtricitabine (FTC); cited from earlier work.

Turning to `Cc1cccc(OCC(=O)OC[C@H]2O[C@@H](n3ccc(NO)nc3=O)[C@H](O)[C@@H]2O)c1` [SN_22, 5′-O-(3-Methylphenoxy)acetyl-N4-hydroxycytidine], the IC50 in the data set on SARS-CoV-2 BQ.1.1.45 was 210 nM; in the data set on SARS-CoV-2 EG.5.1.1, 200 nM; with HCoV-229E, 1620 nM; with SARS-CoV-2 XBB.1.16 it was 250 nM. In addition, in data set [1], the CC50 was at least 50000 nM.

Take `CCCCCCCCCCCCCC(=O)OC[C@@H]1O[C@H](n2cc(F)c(N)nc2=O)CS1`: the “times higher anti-HIV activity than the parent drug” value in the data set on HIV is listed as 10–24 times.

For the compound `COc1cccc(CC(=O)OC[C@H]2O[C@@H](n3ccc(NO)nc3=O)[C@H](O)[C@@H]2O)c1` [SN_15, 5′-O-(3-Methoxyphenyl)acetyl-N4-hydroxycytidine], the IC50 in the data set with SARS-CoV-2 BQ.1.1.45 worked out at 740 nM; with SARS-CoV-2 EG.5.1.1, 530 nM; in the data set with HCoV-229E it was 11100 nM; with SARS-CoV-2 XBB.1.16, 2090 nM. In addition, the CC50 in data set [1] was at least 50000 nM.

As for `COc1ccc(CC(=O)OC[C@H]2O[C@@H](n3ccc(NO)nc3=O)[C@H](O)[C@@H]2O)cc1` [SN_16, 5′-O-(4-Methoxyphenyl)acetyl-N4-hydroxycytidine], the IC50 in the data set with SARS-CoV-2 BQ.1.1.45 turned out to be 710 nM; with SARS-CoV-2 EG.5.1.1, 560 nM; in the data set with HCoV-229E, 7290 nM; in the data set with SARS-CoV-2 XBB.1.16, 2020 nM. Moreover, in data set [1], the CC50 is at least 50000 nM.

As for `O=C(Cc1ccccc1F)OC[C@H]1O[C@@H](n2ccc(NO)nc2=O)[C@H](O)[C@@H]1O` [SN_17, 5′-O-(2-Fluorophenyl)acetyl-N4-hydroxycytidine], the IC50 is 650 nM in the data set on SARS-CoV-2 BQ.1.1.45, 980 nM in the data set with SARS-CoV-2 EG.5.1.1, 7860 nM in the data set with HCoV-229E and 1690 nM in the data set on SARS-CoV-2 XBB.1.16. For the same compound, the 50% cytotoxic concentration (CC50) in data set [1] was at least 50000 nM.

`O=C(Cc1ccc(F)cc1)OC[C@H]1O[C@@H](n2ccc(NO)nc2=O)[C@H](O)[C@@H]1O` [SN_18, 5′-O-(4-Fluorophenyl)acetyl-N4-hydroxycytidine]: the IC50 in the data set with SARS-CoV-2 BQ.1.1.45 is 1210 nM; in the data set with SARS-CoV-2 EG.5.1.1, 1780 nM; with HCoV-229E, 21000 nM; in the data set on SARS-CoV-2 XBB.1.16, 2760 nM. The same compound displayed a cytotoxic concentration (CC50) in data set [1] of at least 50000 nM.

Consider `O=C(OC[C@H]1O[C@@H](n2ccc(NO)nc2=O)[C@H](O)[C@@H]1O)C1(c2ccccc2)CC1` [SN_20, 5′-O-(1-Phenylcyclopropanoyl-1-carbonyl)-N4-hydroxycytidine], for which the IC50 is at least 50000 nM in the data set with SARS-CoV-2 BQ.1.1.45, over 100000 nM with SARS-CoV-2 EG.5.1.1, over 100000 nM in the data set with HCoV-229E and over 100000 nM in the data set on SARS-CoV-2 XBB.1.16. The compound further registered a CC50 in data set [1] of at least 50000 nM.

With `CC(C)C(=O)OC[C@H]1O[C@@H](n2ccc(NO)nc2=O)[C@H](O)[C@@H]1O` [EIDD-2801, Molnupiravir, reference compound], the IC50 turned out to be 310 nM with SARS-CoV-2 BQ.1.1.45, 530 nM in the data set on SARS-CoV-2 EG.5.1.1, 3440 nM with HCoV-229E and 1510 nM in the data set with SARS-CoV-2 XBB.1.16. In data set [1], this compound registered a CC50 of at least 50000 nM.

In the case of `O=C(COc1ccccc1)OC[C@H]1O[C@@H](n2ccc(NO)nc2=O)[C@H](O)[C@@H]1O` [SN_21, 5′-O-Phenoxyacetyl-N4-hydroxycytidine], the IC50 in the data set with SARS-CoV-2 BQ.1.1.45 came to 860 nM; in the data set with SARS-CoV-2 EG.5.1.1, 830 nM; in the data set on HCoV-229E it was 5130 nM; with SARS-CoV-2 XBB.1.16, 1280 nM. In data set [1], the CC50 was at least 50000 nM.

`O=C(Cc1ccccc1Cl)OC[C@H]1O[C@@H](n2ccc(NO)nc2=O)[C@H](O)[C@@H]1O` [SN_19, 5′-O-(2-Chlorophenyl)acetyl-N4-hydroxycytidine]: the IC50 was 2340 nM in the data set on SARS-CoV-2 BQ.1.1.45, 2160 nM in the data set on SARS-CoV-2 EG.5.1.1, 23800 nM in the data set on HCoV-229E and 5710 nM with SARS-CoV-2 XBB.1.16. The compound further showed a CC50 in data set [1] of at least 50000 nM.

As to `Cc1ccc(CC(=O)OC[C@H]2O[C@@H](n3ccc(NO)nc3=O)[C@H](O)[C@@H]2O)cc1` [SN_14, 5′-O-(4-Methylphenyl)acetyl-N4-hydroxycytidine], the IC50 stood at 700 nM in the data set on SARS-CoV-2 BQ.1.1.45, 1090 nM with SARS-CoV-2 EG.5.1.1, 10500 nM with HCoV-229E and 2160 nM with SARS-CoV-2 XBB.1.16. In data set [1], this compound returned a CC50 of at least 50000 nM.

With `COc1cccc(CCC(=O)OC[C@H]2O[C@@H](n3ccc(NO)nc3=O)[C@H](O)[C@@H]2O)c1` [SN_23, 5′-O-3-(3-Methoxyphenyl)propanoyl-N4-hydroxycytidine], the IC50 with SARS-CoV-2 BQ.1.1.45 turned out to be 260 nM; with SARS-CoV-2 EG.5.1.1, 300 nM; with HCoV-229E, 1680 nM; in the data set with SARS-CoV-2 XBB.1.16, 1020 nM. In data set [1], the CC50 was at least 50000 nM.
